# Assay results as given in patent publication US7034056B2, “Aryl and biaryl compounds having MCH modulatory activity” (Pharmacopeia Drug Discovery, inc., priority 2001, dated 2006).
# Target: T1, hMCHR (MCH receptor) (Homo sapiens, UniProt Q99705)
# T1 construct: (or internally produced); host or cells: CHO (Chinese hamster ovary) cells, membrane preparation
# Assay: MCH Assay PCOP Protocol ([125I]-MCH SPA binding to hMCHR-CHO membranes);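 for Activity (Ki range): A 0.4–50 nM B 51–500 nM C 501–2500 nM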
# Conditions: [125I]-MCH 0.5 nM, hMCHR-CHO membranes; read-out: Activity (ranges of Ki values)
# Protocol: A reaction mixture of 10 μg hMCHR-CHO overexpressing membranes (from Receptor Biology, Inc., Beltsville, Md., or internally produced) and 100 μg/well WGA-SPA beads (from Amersham Pharmacia Biotech, Inc., Piscataway, N.J.)/100 μl was prepared in MCHR assay buffer (25 mM HEPES, pH 7.4, 10 mM NaCl, 10 mM MgCl2, 5 mM MnCl2, 0.1% BSA). […] The assay plates were shaken for 5 minutes on a plate shaker, then incubated for 2 hours before cpm/well were determined in a Microbeta Trilux counter (from PerkinElmer Wallac, Inc., Gaithersburg, Md.).
# T1 sequence (Q99705 whole entry): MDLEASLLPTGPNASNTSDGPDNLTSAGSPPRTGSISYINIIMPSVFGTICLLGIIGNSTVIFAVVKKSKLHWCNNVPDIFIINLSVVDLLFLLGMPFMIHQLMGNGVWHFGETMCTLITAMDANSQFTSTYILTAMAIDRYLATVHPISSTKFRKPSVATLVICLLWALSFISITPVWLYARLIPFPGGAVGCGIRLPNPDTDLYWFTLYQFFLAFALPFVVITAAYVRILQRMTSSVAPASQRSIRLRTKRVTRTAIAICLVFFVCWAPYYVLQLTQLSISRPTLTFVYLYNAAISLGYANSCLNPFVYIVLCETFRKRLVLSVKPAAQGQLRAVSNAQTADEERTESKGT
row,Compound,Ki [nM]
1,O=C(NCC(CCN1CCC(NC(=O)C2CCC2)C1)c1ccc(Cl)cc1)Nc1cc(Cl)cc(Cl)c1 (centres unmarked) [Example 178],51 to 500
2,CS(=O)(=O)NC1CCN(CCC(CNC(=O)Nc2cc(Cl)cc(Cl)c2)c2ccc(Cl)cc2)CC1 (centres unmarked) [Example 179],51 to 500
3,O=C(NCC(CCN1CCC(NC(=O)C2CCC2)C1)c1ccc(Cl)c(Cl)c1)Nc1cc(Cl)cc(Cl)c1 (centres unmarked) [Example 181],51 to 500
4,CCNC(=O)N1CCC(NCCC(CNC(=O)Nc2cc(Cl)cc(Cl)c2)c2ccc(Cl)c(Cl)c2)C1 (centres unmarked) [Example 182],51 to 500
5,Cc1ccc(C(CCN2CCC(NC(=O)C3CCC3)C2)CNC(=O)Nc2cc(Cl)cc(Cl)c2)cc1 (centres unmarked) [Example 184],51 to 500
6,O=C(NCC(CCN1CCC(NC(=O)C2CCC2)CC1)c1ccc(Cl)cc1)Nc1cc(Cl)cc(Cl)c1 (centres unmarked) [Example 185],51 to 500
7,CC(=O)NC1CCN(CCC(CNC(=O)Nc2cc(Cl)cc(Cl)c2)c2ccc(Cl)cc2)C1 (centres unmarked) [Example 186],51 to 500
8,Cc1ccc(C(CCN2CCC(NC(=O)C3CCC3)CC2)CNC(=O)Nc2cc(Cl)cc(Cl)c2)cc1 (centres unmarked) [Example 187],51 to 500
9,COCC(=O)NC1CCN(CCC(CNC(=O)Nc2cc(Cl)cc(Cl)c2)c2ccc(Cl)c(Cl)c2)C1 (centres unmarked) [Example 188],51 to 500
10,O=C(NCC(CCN1CCC(NC(=O)c2cccs2)C1)c1ccc(Cl)c(Cl)c1)Nc1cc(Cl)cc(Cl)c1 (centres unmarked) [Example 190],51 to 500
11,O=C(NCC(CCN1CCC(NC(=O)C2CCC2)CC1)c1ccc(Cl)c(Cl)c1)Nc1cc(Cl)cc(Cl)c1 (centres unmarked) [Example 191],51 to 500
12,COCC(=O)NC1CCN(CCC(CNC(=O)Nc2cc(Cl)cc(Cl)c2)c2ccc(Cl)cc2)CC1 (centres unmarked) [Example 192],51 to 500
13,O=C(NCC(CCN1CCC(NC(=O)c2ccno2)C1)c1ccc(Cl)cc1)Nc1cc(Cl)cc(Cl)c1 (centres unmarked) [Example 193],51 to 500
14,COCC(=O)NC1CCN(CCC(CNC(=O)Nc2cc(Cl)cc(Cl)c2)c2ccc(Cl)cc2)C1 (centres unmarked) [Example 194],51 to 500
15,COCC(=O)NC1CCN(CCC(CNC(=O)Nc2cc(Cl)cc(Cl)c2)c2ccc(Cl)c(Cl)c2)CC1 (centres unmarked) [Example 195],51 to 500
16,CC(=O)NC1CCN(CCC(CNC(=O)Nc2cc(Cl)cc(Cl)c2)c2ccc(Cl)cc2)CC1 (centres unmarked) [Example 196],51 to 500
17,COc1cscc1C(=O)NC1CCN(CCC(CNC(=O)Nc2cc(Cl)cc(Cl)c2)c2ccc(Cl)cc2)C1 (centres unmarked) [Example 197],51 to 500
18,Cc1ccc(C(CCN2CCC(NC(=O)c3cccs3)CC2)CNC(=O)Nc2cc(Cl)cc(Cl)c2)cc1 (centres unmarked) [Example 198],51 to 500

row,Compound,Ki [nM]
1,CC(=O)NC1CCN(CCC(CNC(=O)Nc2cc(Cl)cc(Cl)c2)c2ccc(Cl)c(Cl)c2)CC1 (centres unmarked) [Example 199],51 to 500
2,COc1cscc1C(=O)NC1CCN(CCC(CNC(=O)Nc2cc(Cl)cc(Cl)c2)c2ccc(Cl)c(Cl)c2)C1 (centres unmarked) [Example 200],501 to 2500
3,COc1cscc1C(=O)NC1CCN(CCC(CNC(=O)Nc2cc(Cl)cc(Cl)c2)c2ccc(Cl)cc2)CC1 (centres unmarked) [Example 201],501 to 2500
4,Cc1ccc(C(CCN2CCC(NC(=O)c3ccno3)C2)CNC(=O)Nc2cc(Cl)cc(Cl)c2)cc1 (centres unmarked) [Example 202],501 to 2500
5,COc1cscc1C(=O)NC1CCN(CCC(CNC(=O)Nc2cc(Cl)cc(Cl)c2)c2ccc(C)cc2)CC1 (centres unmarked) [Example 203],501 to 2500
6,CS(=O)(=O)NC1CCN(CCC(CNC(=O)Nc2cc(Cl)cc(Cl)c2)c2ccc(Cl)cc2)C1 (centres unmarked) [Example 204],501 to 2500
7,Cc1ccc(C(CCN2CCC(NC(=O)c3ccno3)CC2)CNC(=O)Nc2cc(Cl)cc(Cl)c2)cc1 (centres unmarked) [Example 205],501 to 2500
8,CC(=O)NC1CCN(CCC(CNC(=O)Nc2cc(Cl)cc(Cl)c2)c2ccc(C)cc2)CC1 (centres unmarked) [Example 206],501 to 2500
9,Cc1ccc(C(CCN2CCC(NS(C)(=O)=O)C2)CNC(=O)Nc2cc(Cl)cc(Cl)c2)cc1 (centres unmarked) [Example 207],501 to 2500
10,COCC(=O)NC1CCN(CCC(CNC(=O)Nc2cc(Cl)cc(Cl)c2)c2ccc(C)cc2)C1 (centres unmarked) [Example 208],501 to 2500
11,O=C(NCC(CCN1CCC(NC(=O)c2ccno2)C1)c1ccc(Cl)c(Cl)c1)Nc1cc(Cl)cc(Cl)c1 (centres unmarked) [Example 209],501 to 2500
12,CC(=O)NC1CCN(CCC(CNC(=O)Nc2cc(Cl)cc(Cl)c2)c2ccc(Cl)c(Cl)c2)C1 (centres unmarked) [Example 210],501 to 2500
13,CS(=O)(=O)NC1CCN(CCC(CNC(=O)Nc2cc(Cl)cc(Cl)c2)c2ccc(Cl)c(Cl)c2)C1 (centres unmarked) [Example 211],501 to 2500
14,O=C(NCC(CCN1CCC(NC(=O)c2cccs2)CC1)c1ccc(Cl)c(Cl)c1)Nc1cc(Cl)cc(Cl)c1 (centres unmarked) [Example 212],501 to 2500
15,COCC(=O)NC1CCN(CCC(CNC(=O)Nc2cc(Cl)cc(Cl)c2)c2ccc(C)cc2)CC1 (centres unmarked) [Example 213],501 to 2500
16,O=C(NCC(CCN1CCC(NC(=O)c2ccno2)CC1)c1ccc(Cl)cc1)Nc1cc(Cl)cc(Cl)c1 (centres unmarked) [Example 214],501 to 2500
17,CC(=O)NC1CCN(CCC(CNC(=O)Nc2cc(Cl)cc(Cl)c2)c2ccc(C)cc2)C1 (centres unmarked) [Example 215],501 to 2500

# Second part, the molecule after the results:
row,Ki [nM],Compound
1,501 to 2500,CN(C)CCCNCCC(CNC(=O)Nc1cc(Cl)cc(Cl)c1)c1cccc(-c2ccccc2)c1 (centres unmarked) [Example 171]
2,501 to 2500,CN(C)CCCNCCC(CNC(=O)Nc1cc(Cl)cc(Cl)c1)c1cccc(-c2cccnc2)c1 (centres unmarked) [Example 172]
3,501 to 2500,CN(C)CCCNCCC(CNC(=O)Nc1cc(Cl)cc(Cl)c1)c1cccc(-c2cccc(F)c2)c1 (centres unmarked) [Example 173]
4,501 to 2500,COc1ccccc1-c1cccc(C(CCNCCCN(C)C)CNC(=O)Nc2cc(Cl)cc(Cl)c2)c1 (centres unmarked) [Example 174]
5,501 to 2500,CN(C)CCCNCCC(CNC(=O)Nc1cc(Cl)cc(Cl)c1)c1cccc(-c2cc(C(F)(F)F)cc(C(F)(F)F)c2)c1 (centres unmarked) [Example 175]
6,501 to 2500,CN(C)CCCNCCC(CNC(=O)Nc1cc(Cl)cc(Cl)c1)c1cccc(-c2ccccc2Cl)c1 (centres unmarked) [Example 176]
7,51 to 500,CCNC(=O)N1CCC(NCCC(CNC(=O)Nc2cc(Cl)cc(Cl)c2)c2ccc(Cl)cc2)C1 (centres unmarked) [Example 177]
8,51 to 500,CCNC(=O)N1CCC(NCCC(CNC(=O)Nc2cc(Cl)cc(Cl)c2)c2ccc(C)cc2)C1 (centres unmarked) [Example 180]
9,51 to 500,O=C(NCC(CCN1CCC(NC(=O)c2cccs2)C1)c1ccc(Cl)cc1)Nc1cc(Cl)cc(Cl)c1 (centres unmarked) [Example 183]
10,501 to 2500,O=C(NCC(CCN1CCC(NC(=O)c2cccs2)CC1)c1ccc(Cl)cc1)Nc1cc(Cl)cc(Cl)c1 (centres unmarked) [Example 216]

# Same assay, conditions: [125I]-MCH binding to hMCHR-CHO membranes; class symbols for ranges of Ki; read-out: Activity (Ki range)
row,Compound,Ki [nM]
1,O=C(NCC(CCN1CCC(NC(=O)c2ccno2)CC1)c1ccc(Cl)c(Cl)c1)Nc1cc(Cl)cc(Cl)c1 (centres unmarked) [Example 217],501 to 2500
2,CN(C)CCCNCCC(CNC(=O)Nc1cc(Cl)cc(Cl)c1)c1ccc(-c2cccc(C#N)c2)cc1 (centres unmarked) [Example 218],0.4 to 50
3,CN(C)CCCNCCC(CNC(=O)Nc1cc(Cl)cc(Cl)c1)c1ccc(-c2cccc([N+](=O)[O-])c2)cc1 (centres unmarked) [Example 220],0.4 to 50
4,CN(C)CCCNCCC(CNC(=O)Nc1cc(Cl)cc(Cl)c1)c1ccc(-c2cccc(Cl)c2)cc1 (centres unmarked) [Example 221],0.4 to 50
5,CN(C)CCCNCCC(CNC(=O)Nc1cc(Cl)cc(Cl)c1)c1ccc(-c2ccc3c(c2)OCO3)cc1 (centres unmarked) [Example 223],0.4 to 50
6,CN(C)CCCNCCC(CNC(=O)Nc1cc(Cl)cc(Cl)c1)c1ccc(-c2ccc(F)c(Cl)c2)cc1 (centres unmarked) [Example 224],0.4 to 50
7,O=C(NCC(CCNC1CCCC1)c1ccc(-c2ccc(F)c(Cl)c2)cc1)Nc1cc(Cl)cc(Cl)c1 (centres unmarked) [Example 226],51 to 500
8,O=C(NCC(CCNC1CCCC1)c1ccc(-c2ccc3c(c2)OCO3)cc1)Nc1cc(Cl)cc(Cl)c1 (centres unmarked) [Example 227],51 to 500
